Source: ChEMBL document CHEMBL1681714, “Organelle-selective energy transfer: a fluorescent indicator of intracellular environment” (Bioorg Med Chem Lett, 2011)

Tests used:
Conditions in all cases: 0.5 h
[1] = Drug uptake in rat Clone 9 cells assessed as accumulation in lysosomes after 30 mins by fluorescence microscopy; format: ADME, cell-based
[2] = Drug uptake in rat Clone 9 cells assessed as accumulation in cytoplasm after 30 mins by fluorescence microscopy; format: ADME, cell-based
[3] = Drug uptake in rat Clone 9 cells assessed as accumulation in mitochondria after 30 mins by fluorescence microscopy; format: ADME
[4] = Drug uptake in rat Clone 9 cells assessed as localization to endoplasmic reticulum after 30 mins by fluorescence microscopy; format: ADME, cell-based
[5] = Drug uptake in rat Clone 9 cells assessed as accumulation in endoplasmic reticulum after 30 mins by fluorescence microscopy; format: ADME, cell-based

Measured: Drug uptake

COc1cc(C#Cc2ccc3c(c2)C(C)(C)C(/C=C/C=C2/N(CCCCCC(=O)O)c4ccccc4C2(C)C)=[N+]3C)ccc1C1=C2C(C)=CC(C)=[N+]2[B-](F)(F)n2c(C)cc(C)c21.[I-]
not listed: [5]
Active: all other assays above

COc1ccccc1C1=[N+]2C(=C(c3ccc(C#Cc4ccc(C5=[N+]6C(=Cc7c(C)c(S(=O)(=O)[O-])c(C)n7[B-]6(F)F)C(=O)N5C)cc4)cc3OCC(=O)O)c3ccc(-c4ccccc4OC)n3[B-]2(F)F)C=C1.[Na+]
Active: [1] | [5] | [4]
